In PMC6430730, “A short peptide potentially promotes the healing of skin wound” (Bioscience Reports, 2019):
Where a SMILES comes first, the peptide text is derived from it.

Assays:
[1] = tested on: full-thickness skin wound mice; settings: in vivo
Procedure: Adult male mice (22–25 g) from the same generation were purchased from Hunan SJA Laboratory Animal Co., Ltd (Certificate number 43004700043639, China). […] Mice were made full-thickness skin wound models after 7 days’ acclimation. Briefly, mice were anesthetized by intraperitoneal injection (i.p.) with 1% sodium pentobarbital (0.1 ml/20 g body weight). Dorsal hair were shaved by an electric clipper and sterilized with 75% alcohol. Two full-thickness skin wounds (8 × 8 mm) were surgically made on the back. After the surgery, the mice were placed in comfortable cages until they recovered from anesthesia. Nine mice were randomly divided into three groups. […] The left-sided wounds of the two groups were treated with the same volume of normal saline as vehicle, and the last group treated with 1 mg/ml KangFuXin (KFX, the ethanol extract of the American cockroach, Inner Mongolia Jingxin Pharmaceutical Co. Ltd, China, Z15020805) as positive control. Wounds were treated twice daily with samples and photographed at intervals of 2 days.
The condition of wounds was documented; then ImageJ software was used to estimate the wound areas (percentage of residual wound area to initial areas). […]

mice = assay: Acute toxicity assay; format: in vivo; settings: for Mortality (%): 3 male and 3 female mice, observed 2 weeks
Procedure: Two phases of acute toxicity were performed as previous study. Lethal concentration of OA-GL12 was tested at 5, 10, 25, and 50 μmol/kg by i.p. in mice, while using saline as negative control. The mortalities, toxic effects, and behavioral changes were observed and recorded for 2 weeks.

human erythrocytes = assay: Hemolytic activity assay; format: cell-based
Procedure: Hemolytic activity assay was performed according to previous research. Briefly, erythrocytes were triply and softly washed with 0.9% normal saline. Then cells were incubated with various concentrations of OA-GL12 for 30 min (37°C), while 0.1% Triton X-100 as maximum hemolysis. The absorbance of supernatant was read at 540 nm after centrifugation with 3000×g for 4 min at room temperature. The numeric data of hemolytic activity (%) was calculated by [(Asample) × 100]/Atriton x-100.

HaCaT cells [2] = assay: Cytotoxicity of Gefitinib on HaCaT cells; format: cell-based, human; settings: Gefitinib 1 μM, 24 h; data not shown
HSF cells = assay: Cellular wound healing (scratch) assay, HSF; format: cell-based, human; settings: MMC 10 µg/ml alone, 24 h; vehicle 38.96 ± 3.34%; mean ± S.D., n=9
Procedure: (§1) Cellular wound healing activity assay was performed as previous research. Briefly, human keratinocytes (HaCaT) (KCB 200442YJ) and human skin fibroblasts (HSF) (KCB 200537) were provided by Conservation Genetics CAS Kunming Cell Bank of Kunming Institute of Zoology, the Chinese Academy of Sciences, and cultured in Dulbecco’s modified Eagle’s medium (DMEM, BI, Israel) with 10% FBS (BI, Israel) and penicillin (100 units/ml)–streptomycin (100 units/ml) in a humidified atmosphere of 5% CO2 (37°C). The possible mycoplasma contamination was excluded by the EZ-PCR mycoplasma contamination detection kit (20-700-20, BI). Cell monolayer formation was formed by culturing the HaCaT and HSF (2.5 × 10^5 cells/well) cells in 24-well plates for 12–24 h with serum starvation and then made to the mechanical scratch wound by a sterile pipette tip (Axygen, U.S.A.). After washing with PBS twice to detach dead cells, cells monolayer was then cultured for next periods (from 0 to 24 h) in a serum-free basal medium (500 μl) with the continued presence of OA-GL12. The same volume of DMEM without OA-GL12 was made as vehicle. […] Cell migration activity was expressed as the percentage of the gap relative to the full area of the scratch using ImageJ software (National Institutes of Health, Bethesda, MD, U.S.A.) to evaluate the repair rate of scarification.

HaCaT cells [3] = assay: Cellular wound healing (scratch) assay, HaCaT; format: cell-based, human; settings: MMC 10 µg/ml alone, 24 h; vehicle 53.39 ± 10.11%; mean ± S.D., n=9
Procedure: as §1

[4] = DPPH free radical scavenging; format: physicochemical; settings: 30 min, room temperature, A517
Procedure: 2,2′-azino-bis (3-ethylbenzothiazoline-6-sulphonic acid) (ABTS) and 2,2-diphenyl-1-picrythydrazyl (DPPH)) scavenging activities of OA-GL12 were assessed referring to previous studies. Briefly, a stock solution of ABTS radical was prepared by incubating 2.8 mM potassium persulphate (Sigma–Aldrich, St. Louis, MO, U.S.A.) with 7 mM ABTS in water for no less than 6 h in the dark, and used immediately. The stock solution was diluted 50-fold with double distilled water. Dissolved samples with ultrapure water were added to the diluted stock solution, while the same volume of solvent was used as the blank, and Vitamin C as the positive control. The reaction was in the dark for 30 min. […] Meanwhile, the assay mixture contained 190 μl of 5 × 10^−5 M DPPH radical (Sigma–Aldrich, St. Louis, MO, U.S.A.) dissolved in ethanol and 10 μl of sample solution. The mixture was then incubated in a 96-well microtiter plates at room temperature for 30 min. Subsequently, the absorbance was measured at 517 nm. The free radical scavenging activity (%) was calculated by (Ablank − Asample) × 100/Ablank.

B. subtilis (ATCC 19659) = assay: Antimicrobial activity assay (agar hole diffusion); format: cell-based, Bacillus subtilis; set-up: key: +: Possessing antimicrobial activity; -: Possessing no antimicrobial activity; settings: Amp (1 mg/ml), 7 μl in agar hole, 16–18 h, 37°C
Procedure: (§2) The antimicrobial activity of OA-GL12 was performed based on our previous research. Briefly, fungal strain Candida albicans (ATCC 14053), Gram-positive bacterial strains Staphylococcus epidermidis (ATCC 12228), Staphylococcus haemolyticus (ATCC 29970), and Bacillus subtilis (ATCC 19659), Gram-negative bacterial strains Escherichia coli (ATCC 25922) were obtained from the Kunming Medical University. The microbes were cultivated in LB broth to OD600 = 0.8. A 10-μl aliquot of the bacteria was collected and added to fresh LB (10 ml) broth with 1% Type I agar (Sigma–Aldrich, St. Louis, MO, U.S.A.), and then poured into a 90-mm Petri dish. A micro hole was made after the agar was solidified, and a 7-μl aliquot of OA-GL12 (1 mM) was added to the hole. Petri dish was placed for 16–18 h at 37°C. As the symbol of antimicrobial activity, a clear zone appeared on the surface of the agar just like ampicillin (1 mg/ml), positive control, which represented the antimicrobial ability of OA-GL12.

E. coli (ATCC 25922) = assay: Antimicrobial activity assay (agar hole diffusion); format: cell-based, Escherichia coli; set-up: key: +: Possessing antimicrobial activity; -: Possessing no antimicrobial activity; settings: Amp (1 mg/ml), 7 μl in agar hole, 16–18 h, 37°C
Procedure: as §2

[5] = tested on: S. epidermidis (ATCC 12228); assay: Antimicrobial activity assay (agar hole diffusion); format: cell-based, Staphylococcus epidermidis; set-up: key: +: Possessing antimicrobial activity; -: Possessing no antimicrobial activity; settings: Amp (1 mg/ml), 7 μl in agar hole, 16–18 h, 37°C
Procedure: as §2

C. albicans (ATCC 14053) = assay: Antimicrobial activity assay (agar hole diffusion); format: cell-based, Candida albicans; set-up: key: +: Possessing antimicrobial activity; -: Possessing no antimicrobial activity; settings: Amp (1 mg/ml), 7 μl in agar hole, 16–18 h, 37°C
Procedure: as §2

[6] = tested on: S. haemolyticus (ATCC 29970); assay: Antimicrobial activity assay (agar hole diffusion); format: cell-based, Staphylococcus haemolyticus; set-up: key: +: Possessing antimicrobial activity; -: Possessing no antimicrobial activity; settings: Amp (1 mg/ml), 7 μl in agar hole, 16–18 h, 37°C
Procedure: as §2

In the case of `CC[C@H](C)[C@H](NC(=O)CNC(=O)[C@H](CO)NC(=O)[C@H](CC(C)C)NC(=O)[C@H](CC(C)C)NC(=O)CN)C(=O)N[C@@H](CC(N)=O)C(=O)N[C@@H](C)C(=O)N[C@@H](CCC(=O)O)C(=O)N[C@@H](Cc1c[nH]c2ccccc12)C(=O)N1CCC[C@H]1C(=O)N[C@@H](CS)C(=O)O` [OA-GL12] (H-GLLSGINAEWPC-OH), the “adverse effects on mouse body weight, general health, or behavior” value [1] is reported as “No adverse effects”, the “Mortality (%)” value (mice; 5 μmol/kg i.p.) is reported as 0% and the “Mortality (%)” value (mice; 10 μmol/kg i.p.) is reported as 0%. The “Mortality (%)” value (mice; 25 μmol/kg i.p.) was 0%, the “Mortality (%)” value (mice; 50 μmol/kg i.p.) was 0% and the “death and abnormal behaviors (tremor, retardation, irritability, piloerection, stiffness of tail)” value (mice; i.p. injection, 2 weeks) was “no death and other abnormal behaviors”. For the same compound, the “hemolytic activity on human erythrocytes in vitro” value (human erythrocytes) was “negligible hemolytic activity”.

For `COc1cc2ncnc(Nc3ccc(F)c(Cl)c3)c2cc1OCCCN1CCOCC1` [Gefitinib], the “cytotoxicity on HaCaT cells” value (HaCaT cells [2]) was “no obvious cytotoxicity”.

In the case of `CO[C@@]12[C@H](COC(N)=O)C3=C(C(=O)C(C)=C(N)C3=O)N1C[C@@H]1N[C@@H]12` [MMC, mitomycin C], the “scratch healing of HSF cells” value (HSF cells) is reported as 22.78 ± 5.22% and the “healing rate of HaCaT cell scratch” value (HaCaT cells [3]) is reported as 26.66 ± 4.64%.

For `O=C1O[C@H]([C@@H](O)CO)C(O)=C1O` [Vitamin C], the DPPH scavenging activity ([4]; 0.063 μM) was “nearly inactive” and the DPPH scavenging ([4]; 1 μM, mean ± S.D., n=3) was 7.71 ± 0.56%.

With Triton X-100 the “Hemolytic ratio (%)” value (human erythrocytes; 0.1% Triton X-100 as maximum hemolysis, 30 min, 37°C, A540) was 100%.

With `CC1(C)S[C@@H]2[C@H](NC(=O)[C@H](N)c3ccccc3)C(=O)N2[C@H]1C(=O)O` [Amp, ampicillin] the Antimicrobial activity (B. subtilis (ATCC 19659)) was “+”, the Antimicrobial activity (E. coli (ATCC 25922)) was “+” and the Antimicrobial activity [5] was “+”. The Antimicrobial activity (C. albicans (ATCC 14053)) was “+” and the Antimicrobial activity [6] was “+”.
